Data from US20230357242A1, “COMPOUND AS AKT KINASE INHIBITOR” (CHIA TAI TIANQING PHARMACEUTICAL GROUP CO., LTD., priority 2020, published 2023).
Read-outs that look alike come from different tables or passages of the source.

Key:
LNcap cells = assay: Inhibitory effect on proliferation of LNcap cells (CCK-8, 72 h); assay type: cell-based; details: Homo sapiens
Description: A dish of LNcap cells (human prostate cancer cells with PTEN deficiency) growing at log phase and in good conditions were taken and digested for 3 min by using 1 mL of pancreatin, then the mixture was added with 4 mL of complete culture medium to terminate digestion, and the cells were added to a centrifuge tube. 20 μL of cells were taken and counted, the required number of cells (mL) was pipetted and centrifuged at 1200 rpm for 5 min, the supernatant was discarded, and an appropriate amount of plating medium (RPMI medium+5% FBS+1% sodium pyruvate+1% glutamine) was added to adjust the cell density to 3×10^4 cells/mL. The cells were seeded on a 96-well plate at 100 μL/well using a multi-channel pipette and cultured in a cell incubator at 37° C., 5% CO2 and saturated humidity. After incubation overnight, compounds were loaded using a nanoliter pipettor, 2 duplicate wells were set for each concentration, and cells without compound were used as negative controls. After 72 h, CCK-8 was added at 10 μL/well for incubation for 4 h, then absorbance was measured at 450 nm with an Envision plate reader, and inhibition rate was calculated. Inhibition rate (%)=(mean value of negative control group−mean value of experimental group)/(mean value of negative control group−mean value of blank group)×100%. A dose-response curve was fitted by four-parameter analysis, with the logarithm of compound concentration as abscissa and inhibition rate as ordinate, so that IC50 was calculated.

AKT1 (S473) = target: T1, AKT1 (S473) (Homo sapiens, UniProt P31749); assay: Inhibitory effect on phosphorylation of LNcap cells AKT1 (S473); assay type: cell-based; details: 1 h incubation
T1 construct: endogenous in cells; host or cells: LNcap cells
Description: LNcap cells AKT1 (S473) growing at log phase were taken, digested with 1 mL of pancreatin for 3 min, and added with 4 mL of complete medium to terminate digestion. The cells were added to a centrifuge tube. 20 μL of cells were taken and counted, the required number of cells (mL) was taken and centrifuged at 1200 rpm for 5 min, and a plating medium (2% FBS+phenol-free red 1640 base medium+1% sodium pyruvate+1% glutamine) was added to adjust the cell density to about 1×10E6 cells/mL. The cells were plated (96 wells) at the above cell density (100 μL/well), and cultured in a cell incubator at 37° C., 5% CO2 overnight; the next day, according to the plate distribution, the corresponding compound was sprayed using a nanoliter pipettor and incubated for 1 h at 37° C. in a cell incubator containing 5% CO2; the supernatant was discarded, and the plate was added with 40 μL of lysis buffer (1×) containing blocking buffer and incubated by shaking at room temperature for 30 min. After the mixture was mixed, 16 μL of lysate was transferred to another 384-well small-volume white plate. The plate was added with 4 μL of pre-mixed antibody (v/v) in assay buffer, covered, centrifuged to mix well, and incubated overnight at room temperature. The 665 nm/620 nm signal value was detected using a PE Envision multi-functional microplate reader, and IC50 was calculated by four-parameter fitting.

[1] = LNcap cells, CCK-8, read-out: LNcap cells IC50
[2] = LNCaP, read-out: LNcap cells IC50

T1 sequence (P31749 whole entry): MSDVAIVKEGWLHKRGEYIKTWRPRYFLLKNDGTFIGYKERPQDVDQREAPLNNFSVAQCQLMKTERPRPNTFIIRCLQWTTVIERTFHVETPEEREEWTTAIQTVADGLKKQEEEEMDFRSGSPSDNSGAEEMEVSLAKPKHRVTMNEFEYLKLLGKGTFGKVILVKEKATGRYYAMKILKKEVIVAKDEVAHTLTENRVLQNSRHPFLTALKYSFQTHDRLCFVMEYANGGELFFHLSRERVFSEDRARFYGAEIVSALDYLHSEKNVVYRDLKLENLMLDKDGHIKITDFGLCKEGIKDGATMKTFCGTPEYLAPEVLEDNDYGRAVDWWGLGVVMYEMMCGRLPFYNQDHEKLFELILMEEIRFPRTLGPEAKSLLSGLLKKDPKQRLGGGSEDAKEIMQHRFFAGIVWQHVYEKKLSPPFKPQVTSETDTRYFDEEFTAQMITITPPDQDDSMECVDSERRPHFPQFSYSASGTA

Row | SMILES | IC50 (LNcap cells; [1]) [µM] | IC50 (AKT1 (S473)) [µM] | IC50 (LNcap cells; [2]) [µM]
1 | CC#CC(=O)N1CCCC1c1cccc(-c2ccc3nc(-c4cccnc4N)n(-c4ccc(C5(N)CCC5)cc4)c3n2)c1 (centres unmarked) [Compound 1] | 0.016 | 0.034 | –
2 | C=CC(=O)NCc1cccc(-c2ccc3nc(-c4cccnc4N)n(-c4ccc(C5(N)CCC5)cc4)c3n2)c1 [Compound 2] | 0.034 | 0.017 | –
3 | C=CC(=O)Nc1ccc(-c2ccc3nc(-c4cccnc4N)n(-c4ccc(C5(N)CCC5)cc4)c3n2)cc1 [Compound 3] | – | 0.02 | 0.0065
4 | Nc1ncccc1-c1nc2ccc(-c3cccc(N4CC5(CCOCC5)C4)c3)nc2n1-c1ccc(C2(N)CCC2)cc1 [Compound 6] | – | 0.054 | 0.015
5 | CC(=O)N1CC[C@@H](N(C)c2cccc(-c3ccc4nc(-c5cccnc5N)n(-c5ccc(C6(N)CCC6)cc5)c4n3)c2)C1 [Compound 7] | – | – | 0.048
6 | Nc1ncccc1-c1nc2ccc(-c3cccc(N4CCN5C(=O)CCC5C4)c3)nc2n1-c1ccc(C2(N)CCC2)cc1 (centres unmarked) [Compound 9] | 0.024 | 0.016 | –
7 | CC1CN(C2COC2)CCN1c1cccc(-c2ccc3nc(-c4cccnc4N)n(-c4ccc(C5(N)CCC5)cc4)c3n2)c1 (centres unmarked) [Compound 10] | – | 0.047 | 0.021
8 | Nc1ncccc1-c1nc2ccc(-c3cccc(N4CCN(C5COC5)CC4)c3)nc2n1-c1ccc(C2(N)CCC2)cc1 [Compound 11] | 0.012 | 0.019 | –
9 | Nc1ncccc1-c1nc2ccc(-c3cccc(N4CC5(COC5)C4)c3)nc2n1-c1ccc(C2(N)CCC2)cc1 [Compound 13] | – | – | 0.02
10 | CC(=O)N1CC2(C1)CN(c1cccc(-c3ccc4nc(-c5cccnc5N)n(-c5ccc(C6(N)CCC6)cc5)c4n3)c1)C2 [Compound 16] | 0.0087 | 0.019 | –
11 | CS(=O)(=O)N1CC2(CN(c3cccc(-c4ccc5nc(-c6cccnc6N)n(-c6ccc(C7(N)CCC7)cc6)c5n4)c3)C2)C1 [Compound 17] | 0.012 | 0.017 | –
12 | Nc1ncccc1-c1nc2ccc(-c3cccc(N4CC5COCC5C4)c3)nc2n1-c1ccc(C2(N)CCC2)cc1 (centres unmarked) [Compound 18] | – | – | 0.018
13 | Nc1ncccc1-c1nc2ccc(-c3cccc(N4CCCS4(=O)=O)c3)nc2n1-c1ccc(C2(N)CCC2)cc1 [Compound 20] | 0.015 | – | –
14 | Nc1ncccc1-c1nc2ccc(-c3cccc(N4CCC(N5CCCC5=O)CC4)c3)nc2n1-c1ccc(C2(N)CCC2)cc1 [Compound 21] | 0.003 | 0.023 | –
15 | CC(=O)N(C)[C@@H]1CCN(c2cccc(-c3ccc4nc(-c5cccnc5N)n(-c5ccc(C6(N)CCC6)cc5)c4n3)c2)C1 [Compound 24] | – | – | 0.041
16 | CC(=O)N1CC2CN(c3cccc(-c4ccc5nc(-c6cccnc6N)n(-c6ccc(C7(N)CCC7)cc6)c5n4)c3)CC21 (centres unmarked) [Compound 26] | 0.014 | – | –
17 | CC(=O)N(C)C1CCCN(c2cccc(-c3ccc4nc(-c5cccnc5N)n(-c5ccc(C6(N)CCC6)cc5)c4n3)c2)C1 (centres unmarked) [Compound 27] | 0.02 | – | –
18 | CC(=O)N(C)CCN(C)c1cccc(-c2ccc3nc(-c4cccnc4N)n(-c4ccc(C5(N)CCC5)cc4)c3n2)c1 [Compound 29] | 0.046 | – | –
19 | CC(=O)N(C)[C@H]1CCN(c2cccc(-c3ccc4nc(-c5cccnc5N)n(-c5ccc(C6(N)CCC6)cc5)c4n3)c2)C1 [Compound 31] | – | – | 0.028

Row | SMILES | IC50 (LNcap cells; [1]) [µM] | IC50 (AKT1 (S473)) [µM] | IC50 (LNcap cells; [2]) [µM]
20 | CN(C1CCN(c2cccc(-c3ccc4nc(-c5cccnc5N)n(-c5ccc(C6(N)CCC6)cc5)c4n3)c2F)CC1)S(C)(=O)=O [Compound 32] | 0.0043 | 0.011 | –
21 | CN1CC2(CC1=O)CN(c1cccc(-c3ccc4nc(-c5cccnc5N)n(-c5ccc(C6(N)CCC6)cc5)c4n3)c1)C2 [Compound 33] | 0.011 | 0.017 | –
22 | Nc1ncccc1-c1nc2ccc(-c3cccc(N4CCC(N5CCC(F)(F)C5=O)CC4)c3)nc2n1-c1ccc(C2(N)CCC2)cc1 [Compound 34] | 0.0029 | 0.025 | –
23 | CC(=O)N1CCC2(CC1)CN(c1cccc(-c3ccc4nc(-c5cccnc5N)n(-c5ccc(C6(N)CCC6)cc5)c4n3)c1F)C2 [Compound 35] | 0.005 | 0.012 | –
24 | CC(=O)N1CC2(CCN(c3cccc(-c4ccc5nc(-c6cccnc6N)n(-c6ccc(C7(N)CCC7)cc6)c5n4)c3F)C2)C1 [Compound 36] | 0.014 | – | –
25 | CC(=O)N1CCC2(C1)CN(c1cccc(-c3ccc4nc(-c5cccnc5N)n(-c5ccc(C6(N)CCC6)cc5)c4n3)c1F)C2 [Compound 37] | 0.0076 | 0.011 | –
26 | [2H]C1([2H])CC(N2CCCC2=O)CC([2H])([2H])N1c1cccc(-c2ccc3nc(-c4cccnc4N)n(-c4ccc(C5(N)CCC5)cc4)c3n2)c1F [Compound 38] | 0.011 | 0.013 | –
27 | CC1COC(=O)N1C1CCN(c2cccc(-c3ccc4nc(-c5cccnc5N)n(-c5ccc(C6(N)CCC6)cc5)c4n3)c2)CC1 (centres unmarked) [Compound 39] | – | 0.042 | 0.011
28 | CC(=O)N1C[C@@H]2CN(c3cccc(-c4ccc5nc(-c6cccnc6N)n(-c6ccc(C7(N)CCC7)cc6)c5n4)c3F)C[C@@H]2C1 [Compound 40] | 0.019 | – | –
29 | Nc1ncccc1-c1nc2ccc(-c3cccc(N4CCC(N5CCCCS5(=O)=O)CC4)c3F)nc2n1-c1ccc(C2(N)CCC2)cc1 [Compound 41] | 0.01 | 0.041 | –
30 | Nc1ncccc1-c1nc2ccc(-c3cccc(N4CCC(N5CCCS5(=O)=O)CC4)c3F)nc2n1-c1ccc(C2(N)CCC2)cc1 [Compound 42] | 0.021 | – | –
31 | CC(=O)N(C)[C@@H]1C[C@H]2CC[C@@H](C1)N2c1cccc(-c2ccc3nc(-c4cccnc4N)n(-c4ccc(C5(N)CCC5)cc4)c3n2)c1 [Compound 43] | 0.047 | – | –
32 | CC1CN(c2cccc(-c3ccc4nc(-c5cccnc5N)n(-c5ccc(C6(N)CCC6)cc5)c4n3)c2F)CCC1N1CCCC1=O (centres unmarked) [Compound 46] | 0.0075 | – | –
33 | CC(=O)N1CC2CC(C1)N2c1cccc(-c2ccc3nc(-c4cccnc4N)n(-c4ccc(C5(N)CCC5)cc4)c3n2)c1F [Compound 47] | 0.081 | – | –
34 | CC1CC(N2CCCC2=O)CCN1c1cccc(-c2ccc3nc(-c4cccnc4N)n(-c4ccc(C5(N)CCC5)cc4)c3n2)c1 (centres unmarked) [Compound 48] | 0.0069 | – | –
35 | CN1CC2(CC1=O)CN(c1cccc(-c3ccc4nc(-c5cccnc5N)n(-c5ccc(C6(N)CCC6)cc5)c4n3)c1F)C2 [Compound 49] | 0.004 | – | –
36 | [2H]C([2H])([2H])N(C(C)=O)C1CCN(c2cccc(-c3ccc4nc(-c5cccnc5N)n(-c5ccc(C6(N)CCC6)cc5)c4n3)c2)CC1 [Compound 54] | – | – | 0.0022
37 | [2H]C([2H])([2H])N(C(C)=O)C1CCN(c2cccc(-c3ccc4nc(-c5cccnc5N)n(-c5ccc(C6(N)CCC6)cc5)c4n3)c2F)CC1 [Compound 55] | 0.0021 | 0.0071 | –
